Experimental findings from patent publication US11939314B2, “Quinolin-2-one derivatives” (MERCK PATENT GMBH, priority 2016, dated 2024) are described below.

In one test the target is T1, c-Kit(V654A) (Homo sapiens, UniProt P10721, V654A).
T1 construct: amino acids 544-end containing the V654A mutation; GST (N)
The test is described as follows: c-Kit(V654A) assay. In kind it is biochemical. The note with it: recombinant human c-Kit aa 544-end, 200 μM ATP, 1.4E-06 means 1.4×10^−6, read-out: Inhibition (IC50) of c-KIT (V654A). A digest of the protocol:
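Radiometric filter-binding read-out: substrate 33P incorporation counted by scintillation after P30 filtermat washes in 75 mM phosphoric acid and methanol. Enzyme: N-GST recombinant human c-Kit aa 544-end carrying V654A.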

For a further test, the target named is T2, PDGFRalpha(V561D) (Homo sapiens, UniProt P16234, V561D).
T2 construct: recombinant human PDGFRalpha, amino acids 550end containing the V561 D mutation; 6His (N)
The test can be described thus: PDGFRalpha(V561D) assay. The format is biochemical. The following applies: recombinant human PDGFRalpha aa 550-end, 200 μM ATP, 1.4E-06 means 1.4×10^−6, read-out: Inhibition (IC50) of PDGFRα (V561D). A digest of the protocol:
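Radiometric filter-binding assay: substrate phosphorylation by recombinant N-His-tagged human PDGFRα 550-end V561D was quenched with 3% phosphoric acid after 40 min at room temperature, then counted.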

T2 sequence (P16234 550-1089 V561D): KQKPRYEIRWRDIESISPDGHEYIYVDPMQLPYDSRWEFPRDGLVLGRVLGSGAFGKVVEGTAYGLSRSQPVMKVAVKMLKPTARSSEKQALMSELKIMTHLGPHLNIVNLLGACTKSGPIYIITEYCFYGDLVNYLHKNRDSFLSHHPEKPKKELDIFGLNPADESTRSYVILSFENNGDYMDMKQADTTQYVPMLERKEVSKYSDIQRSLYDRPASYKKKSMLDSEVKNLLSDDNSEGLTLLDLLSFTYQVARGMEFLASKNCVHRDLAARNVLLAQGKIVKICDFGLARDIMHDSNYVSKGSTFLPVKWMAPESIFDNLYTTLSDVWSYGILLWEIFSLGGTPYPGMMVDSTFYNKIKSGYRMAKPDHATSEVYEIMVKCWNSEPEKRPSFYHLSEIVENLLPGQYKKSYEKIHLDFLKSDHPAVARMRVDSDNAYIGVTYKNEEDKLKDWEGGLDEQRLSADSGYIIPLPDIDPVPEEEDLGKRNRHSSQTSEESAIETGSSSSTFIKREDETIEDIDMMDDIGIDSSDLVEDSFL
T1 sequence (P10721 544-976 V654A): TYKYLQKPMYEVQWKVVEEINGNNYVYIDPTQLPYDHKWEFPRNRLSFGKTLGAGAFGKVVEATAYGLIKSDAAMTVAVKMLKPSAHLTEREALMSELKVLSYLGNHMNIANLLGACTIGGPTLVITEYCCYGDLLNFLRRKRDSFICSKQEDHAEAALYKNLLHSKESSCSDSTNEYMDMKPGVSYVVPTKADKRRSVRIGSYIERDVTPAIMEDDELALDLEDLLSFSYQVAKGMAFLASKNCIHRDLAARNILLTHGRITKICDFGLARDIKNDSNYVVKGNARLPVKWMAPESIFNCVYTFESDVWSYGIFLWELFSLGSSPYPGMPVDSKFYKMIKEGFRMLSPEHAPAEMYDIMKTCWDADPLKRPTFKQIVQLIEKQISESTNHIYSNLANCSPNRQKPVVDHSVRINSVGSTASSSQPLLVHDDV

For orientation: IC50 means the concentration that gives 50% inhibition. As for `COCCCN1CCN(C(=O)c2ccc(-n3cc(-c4cc5c(F)cccc5[nH]c4=O)nn3)cc2)CC1` [A87, 5-fluoro-3-(1-{4-[4-(3-methoxy-propyl)-piperazine-1-carbonyl]-phenyl}-1H-[1,2,3]triazol-4-yl)-1H-quinolin-2-one], the values for the 50% inhibitory concentration (IC50) at c-Kit(V654A) and on PDGFRalpha(V561D) were 25 nM and 12 nM, respectively.

Turning to `COC[C@@H]1CCCN1C(=O)c1ccc(-n2cc(-c3cc4cc(F)ccc4[nH]c3=O)nn2)cc1` [A215, 6-fluoro-3-{1-[4-((S)-2-methoxymethyl-pyrrolidine-1-carbonyl)-phenyl]-1H-[1,2,3]triazol-4-yl}-1H-quinolin-2-one], the half-maximal inhibitory concentration (IC50) on c-Kit(V654A) is 64 nM; on PDGFRalpha(V561D), 220 nM.

`CN(C)[C@@H]1CCCN(C(=O)c2ccc(-n3cc(-c4cc5cc(F)ccc5[nH]c4=O)nn3)cc2)C1` [A331, 3-{1-[4-((R)-3-dimethylamino-piperidine-1-carbonyl)-phenyl]-1H-[1,2,3]triazol-4-yl}-6-fluoro-1H-quinolin-2-one]: the half-inhibitory concentration (IC50) on c-Kit(V654A) is 63 nM; on PDGFRalpha(V561D) it was 570 nM.

`O=c1[nH]c2ccc(F)cc2cc1-c1cn(-c2cccc(OCCN3CCOCC3)c2)nn1` [A94a, 6-fluoro-3-{1-[3-(2-morpholin-4-yl-ethoxy)-phenyl]-1H-[1,2,3]triazol-4-yl}-1H-quinolin-2-one]: the half-inhibitory concentration (IC50) turned out to be 60 nM at c-Kit(V654A) and 54 nM at PDGFRalpha(V561D).

`CN1CCC(NC(=O)c2ccc(-n3cc(-c4cc5ccccc5[nH]c4=O)nn3)cc2)CC1` [A58, N-(1-Methyl-piperidin-4-yl)-4-[4-(2-oxo-1,2-dihydro-quinolin-3-yl)-[1,2,3]triazol-1-yl]-benzamide]: the half-maximal inhibitory concentration (IC50) at c-Kit(V654A) stood at 44 nM; at PDGFRalpha(V561D), 21 nM.

`CO[C@@H]1CCN(C(=O)c2ccc(-n3cc(-c4cc5cc(F)ccc5[nH]c4=O)cn3)cc2)C1` [A298, 6-fluoro-3-{1-[4-((R)-3-methoxy-pyrrolidine-1-carbonyl)-phenyl]-1H-pyrazol-4-yl}-1H-quinolin-2-one]: the values for the IC50 on c-Kit(V654A) and on PDGFRalpha(V561D) were 41 nM and 21 nM, respectively.

As to `O=C(c1ccc(-n2cc(-c3cc4ccc(F)cc4[nH]c3=O)nn2)cc1)N1CCNCC1` [A117, 7-fluoro-3-{1-[4-(piperazine-1-carbonyl)-phenyl]-1H-[1,2,3]triazol-4-yl}-1H-quinolin-2-one], the 50% inhibitory concentration (IC50) was 28 nM on c-Kit(V654A) and 11 nM at PDGFRalpha(V561D).

On to `CN1CCN(C(=O)c2ccc(-n3cc(-c4cc5cc(Cl)ccc5[nH]c4=O)nn3)cc2)CC1=O` [A96, 6-chloro-3-{1-[4-(4-methyl-3-oxo-piperazine-1-carbonyl)-phenyl]-1H-[1,2,3]triazol-4-yl}-1H-quinolin-2-one], for which the IC50 on c-Kit(V654A) came to 5.2 nM; on PDGFRalpha(V561D) it was 0.33 nM.

As to `CO[C@H]1CC[C@@H](Oc2ccc(-n3cc(-c4cc5cc(F)ccc5[nH]c4=O)nn3)cc2)C1` (stereo in doubt) [A355, 6-Fluoro-3-{1-[4-((trans)-3-methoxy-cyclopentyloxy)-phenyl]-1H-[1,2,3]triazol-4-yl}-1H-quinolin-2-one], the half-inhibitory concentration (IC50) at c-Kit(V654A) amounted to 89 nM; at PDGFRalpha(V561D), 1600 nM.

For the compound `COc1ccc2cc(-c3cn(-c4ccc(C(=O)N5CCOCC5)cc4)nn3)c(=O)[nH]c2c1` [A93, 7-methoxy-3-{1-[4-(morpholine-4-carbonyl)-phenyl]-1H-[1,2,3]triazol-4-yl}-1H-quinolin-2-one], the IC50 on c-Kit(V654A) came to 320 nM; on PDGFRalpha(V561D), 310 nM.

Take `CN(C)C[C@@H]1CCCN1C(=O)c1ccc(-n2cc(-c3cc4cc(F)ccc4[nH]c3=O)nn2)cc1` [A319, 3-{1-[4-((S)-2-dimethylaminomethyl-pyrrolidine-1-carbonyl)-phenyl]-1H-[1,2,3]triazol-4-yl}-6-fluoro-1H-quinolin-2-one]: the IC50 was found to be 27 nM on c-Kit(V654A) and 36 nM at PDGFRalpha(V561D).

For the compound `CN1CCCN(c2ccc(-n3cc(-c4cc5cc(F)cnc5[nH]c4=O)nn3)cc2)CC1` [A155, 6-fluoro-3-{1-[4-(4-methyl-[1,4]diazepan-1-yl)-phenyl]-1H-[1,2,3]triazol-4-yl}-1H-[1,8]naphthyridin-2-one], the half-maximal inhibitory concentration (IC50) on c-Kit(V654A) worked out at 81 nM; on PDGFRalpha(V561D), 61 nM.

Take `COCCOC[C@H]1CCN(C(=O)c2ccc(-n3cc(-c4cc5cc(F)c(F)cc5[nH]c4=O)nn3)cc2)C1` [A233, 6,7-difluoro-3-(1-{4-[(S)-3-(2-methoxy-ethoxymethyl)-pyrrolidine-1-carbonyl]-phenyl}-1H-[1,2,3]triazol-4-yl)-1H-quinolin-2-one]: the half-inhibitory concentration (IC50) at c-Kit(V654A) was found to be 96 nM; on PDGFRalpha(V561D), 600 nM.

For `COCCN1CCN(C(=O)c2ccc(-n3cc(-c4cc5cc(F)cnc5[nH]c4=O)nn3)cc2)CC1` [A175, 6-Fluoro-3-(1-{4-[4-(2-methoxy-ethyl)-piperazine-1-carbonyl]-phenyl}-1H-[1,2,3]triazol-4-yl)-1H-[1,8]naphthyridin-2-one], the half-maximal inhibitory concentration (IC50) at c-Kit(V654A) was 92 nM; at PDGFRalpha(V561D) it was 6 nM.

`CN1CCC(Cc2ccc(-n3cc(-c4cc5cc(F)ccc5[nH]c4=O)nn3)cc2)CC1` [A371, 6-fluoro-3-{1-[4-(1-methyl-piperidin-4-ylmethyl)-phenyl]-1H-[1,2,3]triazol-4-yl}-1H-quinolin-2-one]: the IC50 on c-Kit(V654A) stood at 34 nM; on PDGFRalpha(V561D), 11 nM.

Consider `CN1CCN(C(=O)c2ccc(-n3cc(-c4cc5cc(F)ccc5[nH]c4=O)nn3)cc2)CC1=O` [A92, 6-fluoro-3-{1-[4-(4-methyl-3-oxo-piperazine-1-carbonyl)-phenyl]-1H-[1,2,3]triazol-4-yl}-1H-quinolin-2-one], for which the IC50 is 21 nM on c-Kit(V654A) and 5.9 nM on PDGFRalpha(V561D).

Consider `CC(=O)N1CCN(CCOc2ccc(-n3cc(-c4cc5cc(F)c(F)cc5[nH]c4=O)nn3)cc2)CC1` [A101, 3-(1-{4-[2-(4-acetyl-piperazin-1-yl)-ethoxy]-phenyl}-1H-[1,2,3]triazol-4-yl)-6,7-difluoro-1H-quinolin-2-one], for which the concentration for half-maximal inhibition (IC50) on c-Kit(V654A) is 33 nM; on PDGFRalpha(V561D), 290 nM.

On to `COCCN(C)C(=O)c1ccc(-n2cc(-c3cc4cc(F)c(F)cc4[nH]c3=O)nn2)cc1` [A212, 4-[4-(6,7-difluoro-2-oxo-1,2-dihydro-quinolin-3-yl)-[1,2,3]triazol-1-yl]-N-(2-methoxy-ethyl)-N-methyl-benzamide], for which the IC50 was determined as 1300 nM on c-Kit(V654A) and 160 nM on PDGFRalpha(V561D).

As to `CN(C)[C@H]1CCCN(C(=O)c2ccc(-n3cc(-c4cc5cc(F)ccc5[nH]c4=O)nn3)cc2)C1` [A332, 3-{1-[4-((S)-3-dimethylamino-piperidine-1-carbonyl)-phenyl]-1H-[1,2,3]triazol-4-yl}-6-fluoro-1H-quinolin-2-one], the half-maximal inhibitory concentration (IC50) on c-Kit(V654A) came out at 71 nM; at PDGFRalpha(V561D) it was 100 nM.

With `CN(C)C1CCN(C(=O)c2ccc(-n3cc(-c4cc5cc(Cl)ccc5[nH]c4=O)nn3)cc2)C1` (stereo not drawn) [A254, 6-chloro-3-{1-[4-(3-dimethylamino-pyrrolidine-1-carbonyl)-phenyl]-1H-[1,2,3]triazol-4-yl}-1H-quinolin-2-one], the half-maximal inhibitory concentration (IC50) on c-Kit(V654A) turned out to be 57 nM; at PDGFRalpha(V561D), 24 nM.

Consider `CN1CCN(C(=O)c2ccc(-n3cc(-c4cc5c(F)cc(F)cc5[nH]c4=O)nn3)cc2)CC1` [A152, 5,7-difluoro-3-{1-[4-(4-methyl-piperazine-1-carbonyl)-phenyl]-1H-[1,2,3]triazol-4-yl}-1H-quinolin-2-one], for which the results for the IC50 at c-Kit(V654A) and on PDGFRalpha(V561D) were 11 nM and 23 nM, respectively.

Consider `O=C(c1ccc(-n2cc(-c3cc4cc(F)ccc4[nH]c3=O)nn2)cc1)N1CCC2(COC2)C1` [A205, 6-fluoro-3-{1-[4-(2-oxa-6-aza-spiro[3.4]octane-6-carbonyl)-phenyl]-1H-[1,2,3]triazol-4-yl}-1H-quinolin-2-one], for which the figures for the IC50 on c-Kit(V654A) and at PDGFRalpha(V561D) were 36 nM and 94 nM, respectively.

On to `CO[C@@H]1C[C@H](CO)N(C(=O)c2ccc(-n3cc(-c4cc5cc(F)ccc5[nH]c4=O)nn3)cc2)C1` [A244, 6-fluoro-3-{1-[4-((2R,4R)-2-hydroxymethyl-4-methoxy-pyrrolidine-1-carbonyl)-phenyl]-1H-[1,2,3]triazol-4-yl}-1H-quinolin-2-one], for which the IC50 on c-Kit(V654A) was 36 nM; at PDGFRalpha(V561D), 13 nM.

For `CO[C@H]1CN(C(=O)c2ccc(-n3cc(-c4cc5cc(F)ccc5[nH]c4=O)nn3)cc2)C[C@H]1OC` [A237, 3-{1-[4-((3R,4S)-3,4-dimethoxy-pyrrolidine-1-carbonyl)-phenyl]-1H-[1,2,3]triazol-4-yl}-6-fluoro-1H-quinolin-2-one], the IC50 on c-Kit(V654A) is 81 nM; on PDGFRalpha(V561D), 490 nM.

With `O=C(c1ccc(-n2cc(-c3cc4cc(F)ccc4[nH]c3=O)nn2)cc1)N1CCNC[C@@H]1CO` [A316, 6-fluoro-3-{1-[4-((R)-2-hydroxymethyl-piperazine-1-carbonyl)-phenyl]-1H-[1,2,3]triazol-4-yl}-1H-quinolin-2-one], the IC50 came to 120 nM at c-Kit(V654A) and 520 nM at PDGFRalpha(V561D).

As to `O=C(COc1ccc(-n2cc(-c3cc4cc(F)ccc4[nH]c3=O)nn2)cc1)N1CCNCC1` [A141, 6-fluoro-3-{1-[4-(2-oxo-2-piperazin-1-yl-ethoxy)-phenyl]-1H-[1,2,3]triazol-4-yl}-1H-quinolin-2-one], the values for the 50% inhibitory concentration (IC50) at c-Kit(V654A) and on PDGFRalpha(V561D) were 3.8 nM and 2.8 nM, respectively.

Take `CO[C@H]1CCN(C(=O)c2ccc(-n3cc(-c4cc5cc(F)ccc5[nH]c4=O)nn3)cc2)C1` [A112, 6-fluoro-3-{1-[4-((S)-3-methoxy-pyrrolidine-1-carbonyl)-phenyl]-1H-[1,2,3]triazol-4-yl}-1H-quinolin-2-one]: the IC50 stood at 16 nM on c-Kit(V654A) and 64 nM at PDGFRalpha(V561D).
